Key:
[1] = system: germinal epithelium cells; conditions: in the presence of 10% HC CSF; n=3
[2] = system: H-Tx model of EOHC; experiment: In vivo supplementation of mothers, numbers of affected HC fetuses; set-up: species or system rat; conditions: long term: 2.5 mg/kg daily from 14 days prior to mating to day 20; saline controls 45%
Description: (§1) Mothers were injected daily with 2.5 mg/kg of the supplements folic acid or folinic acid or saline controls. Injections were started 14 days prior to mating and continued throughout pregnancy up to harvesting of the fetuses at day 20. Fetuses were harvested on Day20 of gestation and each fetus was scored as affected HC or normal. The percentage of normal or affected fetuses in each litter was then calculated and results were averaged across the 3 mothers (2 for saline treatment) and are plotted as shown, mean±SD.
as §1, with “acid.” for “acid or saline controls.”, “at E17 of the pregnancy” for “14 days prior to mating”, “through the rest of the” for “throughout”
Timed pregnancies of H-Tx or Wistar rats were harvested from pregnant dams killed by intraperitoneal injection of sodium pentobarbitone. […]
Female rats were handled for one week prior to the start of the supplementation protocol to decrease handling stress. […] Stained sections were photographed on a Lecia DMLB photomicroscope and analysed using Metaview software. […]

[3] = Effect of supplementation on mother's weight through pregnancy; format: in vivo, rat; conditions: 2.5 mg/kg daily injection from 14 days prior to mating to day 20; no significant differences
Description: Mothers were injected daily with 2.5 mg/kg of the supplements folic acid or folinic acid or saline controls. Injections were started 14 days prior to mating and continued throughout pregnancy up to harvesting of the fetuses at day 20. Mothers were weighed at the same time each day and data converted to % of starting weight at day 0. Results were averaged across the 3 mothers (2 for saline treatment) and are plotted as shown mean±SD.
The hypothesis was tested further using the H-Tx model of EOHC. Mothers were injected daily with 2.5 mg/kg of the supplements folic acid (3 mothers-31 pups) or folinic acid (3 mothers-35 pups) or saline controls (2 mothers-20 pups). Injections were started 14 days prior to mating and continued throughout pregnancy up to harvesting of the fetuses at day 20.

[4] = human population, supplementation of female diets; data from reports; cited from earlier work

Structure (SMILES)	uptake, % of that in the absence of added CSF [1]	incidence of HC (percentage of affected fetuses in the litter) [2]	weight of the mothers compared to saline treated animals [3]	effect on the incidence of HC [4]
Nc1nc2ncc(CNc3ccc(C(=O)N[C@@H](CCC(=O)O)C(=O)O)cc3)nc2c(=O)[nH]1 [[^3H]-folic acid]	53±13%	–	–	–
Nc1nc2ncc(CNc3ccc(C(=O)N[C@@H](CCC(=O)O)C(=O)O)cc3)nc2c(=O)[nH]1 [folic acid]	–	60%	slightly increased weight	does not have any significant effect

Reference: patent publication US20110092453A1, “TREATMENTS AND PREVENTION OF HYDROCEPHALUS” (THE UNIVERSITY OF MANCHESTER, priority 2007, published 2011)
